The values that follow come from patent US20260232006A1, “EMULSIONS FOR NICOTINE ENCAPSULATION” (NICOVENTURES TRADING LIMITED, priority 2023, published 2026).

For series [1] the following is noted: cited from earlier work.
For series [2] the following is noted: in mixture of mono- and diglycerides of capric and caprylic acid (Capmul MCM); 48 h at 30° C.
Procedure: Samples were blanketed with nitrogen, sonicated for 30 min, then placed in a thermostatic orbital shaker and continuously shaken at 300 rpm for 48 h at 30° C.

Consider `CC(/C=C/C=C(C)/C=C/C(=O)O)=C\C=C\C=C(C)\C=C\C=C(C)\C=C\C(=O)O` (stereo in doubt) [norbixin, (2E,4E,6E,8E,10E,12E,14E,16E,18E)-4,8,13,17-tetramethylicosa-2,4,6,8,10,12,14,16,18-nonaenedioic acid], for which the solubility in water entry in series [1] is listed as “water-soluble”. Consider `CN1CCCC1c1cccnc1.O=C(O)c1ccccc1` (centres unmarked) [nicotine benzoate], for which, in series [2], the “highest nicotine benzoate solubility in oil without sedimentation” value is 30 % by weight.

Regarding `COC(=O)/C=C/C(C)=C\C=C\C(C)=C\C=C\C=C(C)\C=C\C=C(C)\C=C\C(=O)O` [bixin, (2E,4E,6E,8E,10E,12E,14E,16Z,18E)-20-methoxy-4,8,13,17-tetramethyl-20-oxoicosa-2,4,6,8,10,12,14,16,18-nonaenoic acid], in series [1], the “solubility in fats and alcohols” value is listed as “soluble”; the solubility in water result is “insoluble”. Further, the chemical stability entry in series [1] (isolated, isomerizes to trans-bixin) is given as “chemically unstable when isolated”.
